Data published in patent US9150592B2, “Heterocyclic nuclear hormone receptor modulators” (AbbVie Inc., priority 2012, dated 2015).

What was measured:
[1] = target: T1, Glucocorticoid Receptor (GR) (Homo sapiens, UniProt P04150); assay: GR Fluorescence Polarization Assay (PolarScreen Glucocorticoid Receptor Competitor Assay, Red); details: IC50 class ranges, read-out: GR binding
T1 construct: purchased Invitrogen P2893
T1 sequence (P04150 1-777): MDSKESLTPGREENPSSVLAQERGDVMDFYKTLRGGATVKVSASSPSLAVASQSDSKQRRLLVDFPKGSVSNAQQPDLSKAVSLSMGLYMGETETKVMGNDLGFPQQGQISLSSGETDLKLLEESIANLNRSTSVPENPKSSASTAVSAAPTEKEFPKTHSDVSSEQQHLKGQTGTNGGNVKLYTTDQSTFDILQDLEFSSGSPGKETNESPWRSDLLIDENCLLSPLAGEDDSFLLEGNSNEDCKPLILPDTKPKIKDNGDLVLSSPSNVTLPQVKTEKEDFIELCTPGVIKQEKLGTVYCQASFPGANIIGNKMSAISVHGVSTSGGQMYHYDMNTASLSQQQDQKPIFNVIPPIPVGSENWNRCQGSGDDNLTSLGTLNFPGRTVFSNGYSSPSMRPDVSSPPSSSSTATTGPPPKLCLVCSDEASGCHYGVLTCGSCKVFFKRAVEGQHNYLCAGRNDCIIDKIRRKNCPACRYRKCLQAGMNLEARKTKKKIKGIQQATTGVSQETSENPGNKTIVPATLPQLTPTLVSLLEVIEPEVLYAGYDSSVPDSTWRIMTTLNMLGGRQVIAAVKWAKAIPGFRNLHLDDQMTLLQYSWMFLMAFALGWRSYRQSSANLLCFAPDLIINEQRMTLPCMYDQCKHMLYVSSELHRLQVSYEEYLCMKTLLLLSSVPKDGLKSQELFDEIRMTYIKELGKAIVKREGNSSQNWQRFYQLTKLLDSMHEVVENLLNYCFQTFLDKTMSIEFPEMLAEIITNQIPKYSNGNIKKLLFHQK
Summary of the method: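 Competitive fluorescence-polarization assay using a red fluorescent glucocorticoid tracer with human GR in kit buffer. Compounds serially diluted 1:4 in DMSO, incubated with tracer and GR overnight at 4° C, then polarization read.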

[2] = system: IL-6 in A549 cells stimulated with IL-1β; assay: A549 Cell Assay to Measure Inflammation Markers (inhibition of IL-1β-induced IL-6); format: cell-based; details: intrinsic activity, Emax class ranges; for Emax: Homo sapiens, A549, A549 Cell Assay to Measure Inflammation Markers; for A549 Emax: A549 Cell Assay to Measure Inflammation Markers
Method: A549 Cell Assay to Measure Inflammation Markers
Further dilution (1:250) of compound was made into assay medium and 50 μL/well diluted drug or DMSO/media control was applied to cells. After a 1 h pre-incubation in a temperature, CO2, and humidity controlled incubator, set to 37° C., 50 μL/well of 4 ng/mL IL-1β diluted in assay media, was applied to cultures. Assay plates, with a final volume of 200 μL/well and final concentrations of 0.1% DMSO and 1 ng/mL IL-1β were returned to incubator for a […] incubation period. Next, plates were spun at 183 g (1000 rpm in Beckman/Coulter Allegra 6KR centrifuge) for 10 min. Cell-free supernatant (150 μL/well) was collected and IL-6 was measured by MSD kit, following protocol of manufacturer, and using MSD SECTOR Imager 6000 instrument. […] Results were represented as IC50 and Emax values.

Cn1nc(-c2ccccn2)c2c1NCCS[C@H]2c1ccc(Br)cc1Cl (single isomer, unassigned) [M.2, 4-(4-bromo-2-chlorophenyl)-1-methyl-3-(pyridin-2-yl)-4,6,7,8-tetrahydro-1H-pyrazolo[3,4-e][1,4]thiazepine] was tested, and the IC50 [1] was under 100 nM and the Emax [2] was under 50%.

Work on Cn1nc(C2CC2)c2c1NCC(C)(C)SC2c1ccc(Cl)cc1F (single isomer, unassigned) [M.3, 4-(4-chloro-2-fluorophenyl)-3-cyclopropyl-1,6,6-trimethyl-4,6,7,8-tetrahydro-1H-pyrazolo[3,4-e][1,4]thiazepine] yielded an IC50 [1] of 1000 to 10000 nM and an Emax [2] of under 50%.

In the case of Cn1nc(C2CC2)c2c1NCC(C)(C)SC2c1ccc(Cl)cc1F (single isomer, unassigned) [M.4, 4-(4-chloro-2-fluorophenyl)-3-cyclopropyl-1,6,6-trimethyl-4,6,7,8-tetrahydro-1H-pyrazolo[3,4-e][1,4]thiazepine], the IC50 [1] is reported as under 100 nM and the “A549 Emax” value [2] is reported as “D (a compound with Emax<50%)”.

For Cc1nn(CC(O)C(F)(F)F)c2c1C(c1ccc(Cl)cc1Cl)SC(C)(C)CN2 (single isomer, unassigned) [M.5, 3-(4-(2,4-dichlorophenyl)-3,6,6-trimethyl-4,6,7,8-tetrahydro-1H-pyrazolo[3,4-e][1,4]thiazepin-1-yl)-1,1,1-trifluoropropan-2-ol], the IC50 [1] was 1000 to 10000 nM and the Emax [2] was under 50%.

Work on Cc1cc(Cl)ccc1[C@H]1SC(C)(C)CNc2c1c(C)nn2C (single isomer, unassigned) [M.6] yielded an IC50 [1] of under 100 nM and an Emax [2] of under 50%.

For Cc1cc(Cl)ccc1[C@@H]1SC(C)(C)CNc2c1c(C)nn2C (single isomer, unassigned) [M.7], the IC50 [1] was 1000 to 10000 nM and the Emax [2] was under 50%.

For Cc1ncccc1NC(=O)c1ccc(C2SC(C)(C)CNc3c2c(C)nn3C)c(Cl)c1 (single isomer, unassigned) [M.8, 3-chloro-N-(2-methylpyridin-3-yl)-4-(1,3,6,6-tetramethyl-4,6,7,8-tetrahydro-1H-pyrazolo[3,4-e][1,4]thiazepin-4-yl)benzamide], the IC50 [1] was 1000 to 10000 nM and the Emax [2] was under 50%.

For Cc1ncccc1NC(=O)c1ccc(C2SC(C)(C)CNc3c2c(C)nn3C)c(Cl)c1 (single isomer, unassigned) [M.9, 3-chloro-N-(2-methylpyridin-3-yl)-4-(1,3,6,6-tetramethyl-4,6,7,8-tetrahydro-1H-pyrazolo[3,4-e][1,4]thiazepin-4-yl)benzamide], the IC50 [1] was 100 to 1000 nM and the “A549 Emax” value [2] was “D (a compound with Emax<50%)”.

In the case of Cc1cc(Cl)ccc1[C@H]1S[C@@H](CCO)CNc2c1c(-c1ccccn1)nn2C (single isomer, unassigned) [M.10, 2-(4-(4-chloro-2-methylphenyl)-1-methyl-3-(pyridin-2-yl)-4,6,7,8-tetrahydro-1H-pyrazolo[3,4-e][1,4]thiazepin-6-yl)ethanol], the IC50 [1] is reported as 1000 to 10000 nM and the Emax [2] is reported as under 50%.

Molecule Cc1cc(Cl)ccc1[C@H]1S[C@H](CCO)CNc2c1c(-c1ccccn1)nn2C (single isomer, unassigned) [M.11, 2-(4-(4-chloro-2-methylphenyl)-1-methyl-3-(pyridin-2-yl)-4,6,7,8-tetrahydro-1H-pyrazolo[3,4-e][1,4]thiazepin-6-yl)ethanol] has an IC50 [1] of 1000 to 10000 nM and an Emax [2] of under 50%.

For Cc1cc(Cl)ccc1[C@@H]1S[C@H](CCO)CNc2c1c(-c1ccccn1)nn2C (single isomer, unassigned) [M.12, 2-(4-(4-chloro-2-methylphenyl)-1-methyl-3-(pyridin-2-yl)-4,6,7,8-tetrahydro-1H-pyrazolo[3,4-e][1,4]thiazepin-6-yl)ethanol], the IC50 [1] was 100 to 1000 nM and the Emax [2] was under 50%.

For Cc1cc(Cl)ccc1[C@@H]1S[C@@H](CCO)CNc2c1c(-c1ccccn1)nn2C (single isomer, unassigned) [M.13, 2-(4-(4-chloro-2-methylphenyl)-1-methyl-3-(pyridin-2-yl)-4,6,7,8-tetrahydro-1H-pyrazolo[3,4-e][1,4]thiazepin-6-yl)ethanol], the IC50 [1] was under 100 nM and the Emax [2] was under 50%.

In the case of Cc1cc(Cl)ccc1[C@H]1S[C@H](CCO)CNc2c1c(C)nn2C (single isomer, unassigned) [M.14, 2-[4-(4-chloro-2-methyl-phenyl)-1,3-dimethyl-4,6,7,8-tetrahydro-1H-pyrazolo[3,4-e][1,4]thiazepin-6-yl]-ethanol], the IC50 [1] is reported as 100 to 1000 nM and the Emax [2] is reported as over 70%.

Cc1cc(Cl)ccc1[C@H]1S[C@@H](CCO)CNc2c1c(C)nn2C (single isomer, unassigned) [M.15, 2-[4-(4-chloro-2-methyl-phenyl)-1,3-dimethyl-4,6,7,8-tetrahydro-1H-pyrazolo[3,4-e][1,4]thiazepin-6-yl]-ethanol] gave an IC50 [1] of 100 to 1000 nM and an Emax [2] of over 70%.

For Cc1cc(Cl)ccc1[C@@H]1S[C@@H](CCO)CNc2c1c(C)nn2C (single isomer, unassigned) [M.16, 2-[4-(4-chloro-2-methyl-phenyl)-1,3-dimethyl-4,6,7,8-tetrahydro-1H-pyrazolo[3,4-e][1,4]thiazepin-6-yl]-ethanol], the IC50 [1] was 1000 to 10000 nM and the Emax [2] was under 50%.

Cc1cc(Cl)ccc1[C@@H]1S[C@H](CCO)CNc2c1c(C)nn2C (single isomer, unassigned) [M.17, 2-[4-(4-chloro-2-methyl-phenyl)-1,3-dimethyl-4,6,7,8-tetrahydro-1H-pyrazolo[3,4-e][1,4]thiazepin-6-yl]-ethanol] showed an IC50 [1] of 100 to 1000 nM and an Emax [2] of under 50%.

With Cc1cc(C#N)ccc1C1SCCNc2c1c(-c1ccccn1)nn2C (single isomer, unassigned) [M.20, 3-methyl-4-(1-methyl-3-(pyridin-2-yl)-4,6,7,8-tetrahydro-1H-pyrazolo[3,4-e][1,4]thiazepin-4-yl)benzonitrile] the IC50 [1] was under 100 nM and the Emax [2] was over 70%.

In the case of CCn1nc(-c2ccccn2)c2c1NCCSC2c1ccc(C#N)cc1C (single isomer, unassigned) [M.22, 3-methyl-4-(1-ethyl-3-(pyridin-2-yl)-4,6,7,8-tetrahydro-1H-pyrazolo[3,4-e][1,4]thiazepin-4-yl)benzonitrile], the IC50 [1] is reported as under 100 nM and the Emax [2] is reported as over 70%.

With Cc1cc(OCC#N)ccc1[C@@H]1SC[C@@H](C)Nc2c1c(-c1ccccn1)nn2C (single isomer, unassigned) [M.23, 2-(4-(1,7-dimethyl-3-(pyridin-2-yl)-4,6,7,8-tetrahydro-1H-pyrazolo[3,4-e][1,4]thiazepin-4-yl)-3-methylphenoxy)acetonitrile] the IC50 [1] was under 100 nM and the Emax [2] was over 50%.

Cc1cc(OCC(N)=O)ccc1[C@@H]1SC[C@@H](C)Nc2c1c(-c1ccccn1)nn2C (single isomer, unassigned) [M.24, 2-(4-(1,7-dimethyl-3-(pyridin-2-yl)-4,6,7,8-tetrahydro-1H-pyrazolo[3,4-e][1,4]thiazepin-4-yl)-3-methylphenoxy)acetamide] gave an IC50 [1] of under 100 nM and an Emax [2] of over 70%.

Molecule CCn1nc(-c2ccccn2)c2c1N[C@H](C)CS[C@H]2c1ccc(C#CCO)cc1C (single isomer, unassigned) [M.27, 3-(4-(1-ethyl-7-methyl-3-(pyridin-2-yl)-4,6,7,8-tetrahydro-1H-pyrazolo[3,4-e][1,4]thiazepin-4-yl)-3-methylphenyl)prop-2-yn-1-ol] has an IC50 [1] of under 100 nM and an Emax [2] of over 60%.

With CCn1nc(-c2ccccn2)c2c1N[C@@H](C)CS[C@H]2c1ccc(C#CCO)cc1C (single isomer, unassigned) [M.28, 3-(4-(1-ethyl-7-methyl-3-(pyridin-2-yl)-4,6,7,8-tetrahydro-1H-pyrazolo[3,4-e][1,4]thiazepin-4-yl)-3-methylphenyl)prop-2-yn-1-ol] the IC50 [1] was under 100 nM and the Emax [2] was over 60%.

Work on CCn1nc(-c2ccccn2)c2c1N[C@H](C)CS[C@H]2c1ccc(C#CC(C)(C)O)cc1C (single isomer, unassigned) [M.31, 4-(4-(1-ethyl-7-methyl-3-(pyridin-2-yl)-4,6,7,8-tetrahydro-1H-pyrazolo[3,4-e][1,4]thiazepin-4-yl)-3-methylphenyl)-2-methylbut-3-yn-2-ol] yielded an IC50 [1] of under 100 nM and an Emax [2] of over 70%.
